Results from US12180207B2 (ARRAY BIOPHARMA INC., priority 2018, dated 2024).

Key:
[1] = biological target: FGFR3 (SEQ ID NO: 5, amino acids 449-759) (Homo sapiens (Human), UniProt P22607); assay: LC/MS FGFR3 kobs assay (covalent protein modification); type: binding; conditions: 500 nM FGFR3, 3 μM compound
How it was run: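 The observed rate constant kobs comes from an exponential decay fit of percent unmodified kinase over time. Covalent modification was quantified by Q-TOF LC/MS of formic acid-quenched samples, normalized against DMSO controls.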

[2] = biological target: HEK-293 cells transfected with dox-inducible human wild type FGFR1 (Homo sapiens (Human), UniProt P11362); assay: FGFR1 pERK cell assay; type: cell-based; conditions: HEK-293 dox-inducible FGFR1, 1 hour compound, 100 ng/ml FGF-acidic; maximum concentration 5 μM
Chain of HEK-293 cells transfected with dox-inducible human wild type FGFR1 (P11362 22-822): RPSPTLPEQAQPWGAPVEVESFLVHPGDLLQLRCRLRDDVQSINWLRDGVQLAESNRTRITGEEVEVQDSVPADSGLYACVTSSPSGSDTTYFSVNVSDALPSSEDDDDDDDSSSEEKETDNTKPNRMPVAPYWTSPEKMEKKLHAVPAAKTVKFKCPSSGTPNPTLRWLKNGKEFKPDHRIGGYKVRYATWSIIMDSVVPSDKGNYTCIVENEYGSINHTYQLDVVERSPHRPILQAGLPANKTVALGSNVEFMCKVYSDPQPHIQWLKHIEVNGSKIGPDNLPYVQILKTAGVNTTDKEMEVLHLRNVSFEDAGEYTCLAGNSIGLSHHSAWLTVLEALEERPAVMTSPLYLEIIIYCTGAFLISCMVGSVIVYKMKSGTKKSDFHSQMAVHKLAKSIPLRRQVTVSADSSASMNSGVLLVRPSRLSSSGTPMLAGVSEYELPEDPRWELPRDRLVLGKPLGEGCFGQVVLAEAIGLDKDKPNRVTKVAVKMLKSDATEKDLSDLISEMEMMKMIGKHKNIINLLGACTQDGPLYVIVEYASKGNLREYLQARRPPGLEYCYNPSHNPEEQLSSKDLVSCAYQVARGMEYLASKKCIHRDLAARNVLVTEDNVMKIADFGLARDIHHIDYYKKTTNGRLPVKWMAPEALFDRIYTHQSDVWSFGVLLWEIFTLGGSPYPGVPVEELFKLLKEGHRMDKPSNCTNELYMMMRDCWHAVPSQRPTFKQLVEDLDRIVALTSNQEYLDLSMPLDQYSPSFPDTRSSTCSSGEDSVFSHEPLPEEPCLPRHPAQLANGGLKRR
How it was run: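 In HEK-293 cells with dox-induced human wild-type FGFR1, compounds (1:3 dilutions, top 5 μM final) were applied 1 h at 37°C before 5 min stimulation with 100 ng/ml FGF-acidic. Phospho-ERK1/2 measured by MSD sandwich immunoassay; IC50 from 4-parameter fit of POC versus vehicle and control compound.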

[3] = biological target: dephosphorylated FGFR1 (SEQ ID NO: 1, amino acids 458 to 765) (Homo sapiens (Human), UniProt P11362); assay: FGFR enzyme binding assay (HTRF tracer displacement), FGFR1; conditions: 5 nM dephosphorylated FGFR1, average of multiple determinations if made
Chain of dephosphorylated FGFR1 (SEQ ID NO: 1, amino acids 458 to 765) (P11362 458-765): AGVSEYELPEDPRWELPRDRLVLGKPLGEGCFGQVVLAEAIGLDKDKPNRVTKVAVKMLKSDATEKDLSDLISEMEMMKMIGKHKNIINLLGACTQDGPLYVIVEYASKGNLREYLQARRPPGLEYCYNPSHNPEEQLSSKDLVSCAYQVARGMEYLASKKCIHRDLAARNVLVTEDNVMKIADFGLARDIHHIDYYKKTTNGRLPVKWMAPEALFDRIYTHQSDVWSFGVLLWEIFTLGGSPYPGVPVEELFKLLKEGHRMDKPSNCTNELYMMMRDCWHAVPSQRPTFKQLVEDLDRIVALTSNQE
How it was run: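 Compounds were tested for displacement of a tracer from human FGFR kinase in a time-resolved FRET binding format. After 60 minutes at 22° C, signal was read at two wavelengths and converted to percent of control, normalised between untreated wells and 1 μM reference inhibitor.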

[4] = biological target: recombinant human FGFR1 catalytic domain (amino acids 308-731) (Homo sapiens (Human), UniProt P11362); assay: FGFR1 enzyme activity assay (LanthaScreen TR-FRET); type: biochemical; conditions: 20 min incubation at 22° C., average of multiple determinations if made, read-out: FGFR1 Enz FRET IC50
Chain of recombinant human FGFR1 catalytic domain (amino acids 308-731) (P11362 other isoform, or with tags, fused parts or gaps): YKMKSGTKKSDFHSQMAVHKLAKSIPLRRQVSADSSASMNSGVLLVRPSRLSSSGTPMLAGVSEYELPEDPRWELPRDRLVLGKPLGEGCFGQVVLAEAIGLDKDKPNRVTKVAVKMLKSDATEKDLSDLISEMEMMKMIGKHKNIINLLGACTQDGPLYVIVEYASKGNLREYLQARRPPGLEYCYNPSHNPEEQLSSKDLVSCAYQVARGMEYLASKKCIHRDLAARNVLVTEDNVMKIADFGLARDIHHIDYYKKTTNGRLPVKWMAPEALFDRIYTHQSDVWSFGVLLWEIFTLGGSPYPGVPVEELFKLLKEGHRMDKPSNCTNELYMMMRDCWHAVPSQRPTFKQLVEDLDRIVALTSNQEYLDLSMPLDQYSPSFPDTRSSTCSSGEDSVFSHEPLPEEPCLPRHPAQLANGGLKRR
How it was run: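 His-tagged FGFR1 kinase domain with 100 nM Alexa Fluor 647-poly-GT peptide and ATP in pH 7.5 HEPES/MgCl2 buffer with 2% DMSO, 20 min at 22 °C. Quenched with EDTA plus 2 nM Eu-PY20 antibody and read after 60 min. IC50 comes from a 4-parameter fit of percent of control.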

[5] = biological target: recombinant human FGFR2 cytoplasmic domain (amino acids 403-822) (Homo sapiens (Human), UniProt P21802); assay: FGFR2 enzyme activity assay (LanthaScreen TR-FRET); type: biochemical; conditions: 15 μM ATP, 20 min incubation at 22° C., average of multiple determinations if made, read-out: FGFR2 Enz FRET IC50
Chain of recombinant human FGFR2 cytoplasmic domain (amino acids 403-822) (P21802 402-821): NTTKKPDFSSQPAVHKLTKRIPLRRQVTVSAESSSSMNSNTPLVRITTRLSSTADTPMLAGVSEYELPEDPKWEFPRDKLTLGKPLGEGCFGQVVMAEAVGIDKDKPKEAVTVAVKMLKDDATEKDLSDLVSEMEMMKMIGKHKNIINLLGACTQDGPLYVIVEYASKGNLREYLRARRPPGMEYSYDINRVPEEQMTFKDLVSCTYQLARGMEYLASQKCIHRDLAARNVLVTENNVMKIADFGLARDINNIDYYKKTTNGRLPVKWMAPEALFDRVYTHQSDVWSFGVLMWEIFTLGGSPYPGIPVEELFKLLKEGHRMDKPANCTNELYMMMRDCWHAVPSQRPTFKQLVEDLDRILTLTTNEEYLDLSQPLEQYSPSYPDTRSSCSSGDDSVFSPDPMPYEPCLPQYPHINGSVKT
How it was run: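 His-tagged FGFR2 cytoplasmic domain ([…]) with 100 nM Alexa Fluor 647-poly-GT peptide and 15 μM ATP in HEPES/MgCl2/Triton buffer, pH 7.5, 2% DMSO, 20 min at 22 °C. EDTA-quenched, Eu-PY20 antibody added, TR-FRET read after 60 min.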

Chain of FGFR3 (SEQ ID NO: 5, amino acids 449-759) (P22607 449-759): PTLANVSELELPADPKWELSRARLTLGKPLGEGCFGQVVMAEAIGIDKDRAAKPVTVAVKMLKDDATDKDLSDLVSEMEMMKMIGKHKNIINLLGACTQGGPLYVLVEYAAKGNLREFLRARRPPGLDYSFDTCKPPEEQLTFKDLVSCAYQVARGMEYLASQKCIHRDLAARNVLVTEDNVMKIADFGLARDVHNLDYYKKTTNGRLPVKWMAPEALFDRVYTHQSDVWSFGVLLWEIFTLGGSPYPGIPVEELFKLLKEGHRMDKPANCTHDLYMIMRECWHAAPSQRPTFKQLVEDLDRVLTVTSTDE

| SMILES | FGFR3 Enz kobs [1] [min⁻¹] | IC50 [2] [nM] | IC50 [3] [nM] | IC50 [4] [nM] | IC50 [5] [nM] |
| --- | --- | --- | --- | --- | --- |
| CC#CC(=O)N1CC(F)(C(=O)N2CCC(n3ncc(-c4cc(OC)c5c(C#N)cnn5c4)c3C)CC2)C1 [Example 156, 6-(1-(1-(1-(but-2-ynoyl)-3-fluoroazetidine-3-carbonyl)piperidin-4-yl)-5-methyl-1H-pyrazol-4-yl)-4-methoxypyrazolo [1,5-a]pyridine-3-carbonitrile] | 0.00585 | 3110 | 598 | 375 | 84 |
| C=CC(=O)N1CC(S(=O)(=O)N2CCC(n3cc(-c4cc(OC)c5c(C#N)cnn5c4)cn3)CC2)C1 [Example 134, 6-(1-(1-((1-acryloylazetidin-3-yl)sulfonyl)piperidin-4-yl)-1H-pyrazol-4-yl)-4-methoxypyrazolo[1,5-a]pyridine-3-carbonitrile] | 0.02537 | 96 | 35 | 5 | 16 |
| COc1cc(-c2cnc(N3CCN(C(=O)C4(F)CN(C(=O)/C=C/CN(C)C)C4)CC3)cc2C)cn2ncc(C#N)c12 [Example 169, (E)-6-(6-(4-(1-(4-(dimethylamino)but-2-enoyl)-3-fluoroazetidine-3-carbonyl)piperazin-1-yl) -4-methylpyridin-3-yl)-4-methoxypyrazolo [1,5-a]pyridine-3-carbonitrile] | 0.08 | 751 | 788 | 156 | 80 |
| COc1cc(-c2c(C)nn(C3CCN(C(=O)C4(F)CN(C(=O)/C=C/CN(C)C)C4)CC3)c2C)cn2ncc(C#N)c12 [Example 161, (E)-6-(1-(1-(1-(4-(dimethylamino)but-2-enoyl)-3-fluoroazetidine-3-carbonyl)piperidin-4-yl)-3,5-dimethyl-1H-pyrazol-4-yl)-4-methoxypyrazolo [1,5-a]pyridine-3-carbonitrile] | 0.1129 | 1620 | 589 | 154 | 31 |
| C=CC(=O)N1CC(F)(C(=O)N2CCN(c3cc(C)c(-c4cc(OC)c5c(C#N)cnn5c4)cn3)CC2)C1 [Example 114, 6-(6-(4-(1-acryloyl-3-fluoroazetidine-3-carbonyl)piperazin-1-yl)-4-methylpyridin-3-yl)-4-methoxypyrazolo[1,5-a]pyridine-3-carbonitrile] | 0.03264 | 1310 | 850 | 308 | 150 |
| COc1cc(-c2cnn(C3CCN(C(=O)C4(F)CN(C(=O)/C=C/CN(C)C)C4)CC3)c2C)cn2ncc(C#N)c12 [Example 153, (E)-6-(1-(1-(1-(4-(dimethylamino)but-2-enoyl)-3-fluoroazetidine-3-carbonyl)piperidin-4-yl)-5-methyl-1H-pyrazol-4-yl)-4-methoxypyrazolo [1,5-a]pyridine-3-carbonitrile] | 0.1578 | 2 | 210 | 39 | 4 |

Further molecules by falling IC50 [2], results first:

| FGFR3 Enz kobs [1] [min⁻¹] | IC50 [2] [nM] | IC50 [3] [nM] | IC50 [4] [nM] | IC50 [5] [nM] | SMILES |
| --- | --- | --- | --- | --- | --- |
| 0.02175 | 1570 | 388 | 107 | 42 | C=CC(=O)N1CC(C(=O)N2CCN(c3ncc(-c4cc(OC)c5c(C#N)cnn5c4)cc3C)CC2)C1 [Example 113, 6-(6-(4-(1-acryloylazetidine-3-carbonyl)piperazin-1-yl)-5-methylpyridin-3-yl)-4-methoxypyrazolo[1,5-a]pyridine-3-carbonitrile] |
| 0.01259 | 955 | 62 | 61 | 11 | C=CC(=O)N1CC(C(=O)N2C[C@@H]3C[C@H]2CN3c2ccc(-c3cc(OC)c4c(C#N)cnn4c3)cn2)C1 [Example 106, 6-(6-((1S,4S)-5-(1-acryloylazetidine-3-carbonyl)-2,5-diazabicyclo[2.2.1]heptan-2-yl)pyridin-3-yl)-4-methoxypyrazolo[1,5-a]pyridine-3-carbonitrile] |
| 0.02912 | 239 | 44 | 38 | 11 | C=CC(=O)N1CC(C(=O)N2CCC3(CC2)CN(c2ccc(-c4cc(OC)c5c(C#N)cnn5c4)cn2)C3)C1 [Example 102, 6-(6-(7-(1-acryloylazetidine-3-carbonyl)-2,7-diazaspiro[3.5]nonan-2-yl)pyridin-3-yl)-4-methoxypyrazolo[1,5-a]pyridine-3-carbonitrile] |
| 0.06393 | 169 | 114 | 28 | 13 | C=CC(=O)N1CC(F)(C(=O)N2CCC(n3cc(-c4cc(OC)c5c(Cl)cnn5c4)cn3)CC2)C1 [Example 121, 1-(3-(4-(4-(3-chloro-4-methoxypyrazolo[1,5-a]pyridin-6-yl)-1H-pyrazol-1-yl)piperidine-1-carbonyl)-3-fluoroazetidin-1-yl)prop-2-en-1-one] |
